Results as given in the supplement of paper PMC10307832.

Tests used:
Assay in all cases: relative viability (nuclei count vs DMSO), 5 days (fraction); higher = more cells survive
BI-2536 + Trametinib = compound: CC[C@@H]1C(=O)N(C)c2cnc(Nc3ccc(C(=O)NC4CCN(C)CC4)cc3OC)nc2N1C1CCCC1 [BI-2536] + CC(=O)Nc1cccc(-n2c(=O)n(C3CC3)c(=O)c3c(Nc4ccc(I)cc4F)n(C)c(=O)c(C)c32)c1 [Trametinib] (partner 0.02 µM)
In short: (§1)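 Five library-drug doses in √10 steps were combined with a fixed anchor-drug dose, or a single drug was given alone, by pin tool to lung cancer cell lines in 1536-well plates the day after seeding. Nuclei were stained and counted after 5 days. Relative viability is the nuclei count in treated wells over that in vehicle wells, taken as the median of duplicate plates.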

BI-2536 + AZD7762 = compound: CC[C@@H]1C(=O)N(C)c2cnc(Nc3ccc(C(=O)NC4CCN(C)CC4)cc3OC)nc2N1C1CCCC1 [BI-2536] + NC(=O)Nc1cc(-c2cccc(F)c2)sc1C(=O)N[C@H]1CCCNC1 [AZD7762] (partner 0.2 µM)
In short: as §1

[1] = compound: CC1CC(=O)N(C2=CN=C(N=C2N1C3CCCC3)NC4=C(C=C(C=C4)C(=O)NC5CCN(CC5)C)OC)C [NPK76-II-72-1] + Nc1ncn([C@H]2C[C@H](O)[C@@H](CO)O2)c(=O)n1 [Decitabine] (partner 2 µM)
In short: as §1

[2] = compound: CC1CC(=O)N(C2=CN=C(N=C2N1C3CCCC3)NC4=C(C=C(C=C4)C(=O)NC5CCN(CC5)C)OC)C [NPK76-II-72-1] + CS(=O)(=O)N1CCN(Cc2cc3nc(-c4cccc5[nH]ncc45)nc(N4CCOCC4)c3s2)CC1 [Pictilisib] (partner 1 µM)
In short: as §1

Cell Line	relative viability (BI-2536 + Trametinib; first compound 0.01 µM)	relative viability (BI-2536 + Trametinib; first compound 0.03162 µM)	relative viability (BI-2536 + Trametinib; first compound 0.1 µM)	relative viability (BI-2536 + Trametinib; first compound 0.3162 µM)	relative viability (BI-2536 + Trametinib; first compound 1 µM)	relative viability (BI-2536 + AZD7762; first compound 0.01 µM)	relative viability (BI-2536 + AZD7762; first compound 0.03162 µM)	relative viability (BI-2536 + AZD7762; first compound 0.1 µM)	relative viability (BI-2536 + AZD7762; first compound 0.3162 µM)	relative viability (BI-2536 + AZD7762; first compound 1 µM)	relative viability ([1]; first compound 0.01 µM)	relative viability ([1]; first compound 0.03162 µM)	relative viability ([1]; first compound 0.1 µM)	relative viability ([1]; first compound 0.3162 µM)	relative viability ([1]; first compound 1 µM)	relative viability ([2]; first compound 0.01 µM)	relative viability ([2]; first compound 0.03162 µM)	relative viability ([2]; first compound 0.1 µM)	relative viability ([2]; first compound 0.3162 µM)	relative viability ([2]; first compound 1 µM)
HCC-366	0.364	0.371	0.235	0.0287	0.0227	0.246	0.37	0.156	0.017	0.0177	0.333	0.381	0.378	0.301	0.373	0.117	0.117	0.128	0.196	0.186
HCC-827	0.594	0.538	0.506	0.324	0.225	0.234	0.217	0.186	0.182	0.14	0.282	0.367	0.333	0.288	0.35	0.954	1.03	0.98	0.929	1.08
HOP-62	0.315	0.353	0.401	0.167	0.152	0.505	0.653	0.235	0.15	0.101	0.202	0.238	0.222	0.208	0.203	0.606	0.766	0.778	0.696	0.613
IA-LM																0.314	0.363	0.33	0.243	0.334
LC-2-ad	0.913	0.803	0.672	0.224	0.239	0.872	0.657	0.166	0.17	0.142	0.715	0.774	0.809	0.776	0.864	0.428	0.515	0.445	0.386	0.428
LCLC-97TM1	0.189	0.179	0.2	0.0929	0.0902	0.159	0.216	0.0989	0.0787	0.0721	0.226	0.233	0.195	0.259	0.211		0.251	0.168	0.173	0.207
NCI-H520	0.712	0.503	0.352	0.187	0.164						0.455	0.575	0.589	0.496	0.586	0.234	0.267	0.374	0.267	0.291
NCI-H522	0.745	0.757	0.766	0.302	0.289	0.826	0.879	0.944	0.302	0.365	0.74	0.598	0.686		0.633					
NCI-H661	0.587	0.427	0.291	0.238	0.264						0.582	0.553	0.589	0.458	0.56	0.416	0.422	0.422		0.508
NCI-H1299																0.79	0.738	0.839	0.702	0.777
NCI-H1563																0.658	0.66	0.602	0.599	0.665
NCI-H1648	0.463	0.409	0.434	0.28	0.289	0.767	0.775	0.432	0.332	0.224	0.53	0.551	0.548	0.476	0.519					
NCI-H1650	0.674	0.497	0.456	0.136	0.136						0.377	0.43	0.435	0.423	0.347	0.569	0.534	0.596	0.547	0.649
NCI-H1703						0.141	0.174	0.0928	0.0808	0.0722						0.257	0.224	0.298	0.283	0.254
NCI-H2009	0.262	0.246	0.336	0.131	0.159						0.422	0.42	0.38	0.364	0.365	0.812	0.974	0.897	0.781	0.886
NCI-H2023	0.53	0.528	0.25	0.113	0.102						0.203	0.218	0.225	0.215	0.227	0.264	0.227	0.244	0.257	0.253
NCI-H2228	0.312	0.51	0.184	0.107	0.089											0.359	0.497	0.503	0.402	0.483
NCI-H2342		0.705	0.73	0.604	0.454		0.459	0.411	0.267	0.349	0.686	0.694	0.759	0.668	0.78					
SK-LU-1	0.347	0.514	0.335	0.218	0.386						0.626	0.63	0.64	0.582	0.615	0.532	0.648	0.514	0.645	0.584
SK-MES-1	0.523	0.555	0.407	0.196	0.161						0.359	0.441	0.434	0.364	0.455	0.429	0.384	0.295	0.376	0.318
SW 900	0.929	0.942	0.875	0.828	0.147	0.557	0.689	0.568	0.188	0.137	0.425	0.407	0.429	0.504	0.467					
SW 1573	0.515	0.51	0.117	0.103	0.0762						0.508	0.579	0.51	0.649	0.505	0.425	0.497	0.498	0.455	0.463
